Where two headings read alike, the source gives them in different places.
Key:
brain CCK receptor = biological target: T1, brain CCK receptor (Mus musculus, UniProt P56481); test: CCK receptor binding, mouse brain membranes (125I-CCK-8 sulfate)
T1 construct: from tissue; host or cells: forebrain membranes of male CF-1 mice
T1 sequence (P56481 1-453): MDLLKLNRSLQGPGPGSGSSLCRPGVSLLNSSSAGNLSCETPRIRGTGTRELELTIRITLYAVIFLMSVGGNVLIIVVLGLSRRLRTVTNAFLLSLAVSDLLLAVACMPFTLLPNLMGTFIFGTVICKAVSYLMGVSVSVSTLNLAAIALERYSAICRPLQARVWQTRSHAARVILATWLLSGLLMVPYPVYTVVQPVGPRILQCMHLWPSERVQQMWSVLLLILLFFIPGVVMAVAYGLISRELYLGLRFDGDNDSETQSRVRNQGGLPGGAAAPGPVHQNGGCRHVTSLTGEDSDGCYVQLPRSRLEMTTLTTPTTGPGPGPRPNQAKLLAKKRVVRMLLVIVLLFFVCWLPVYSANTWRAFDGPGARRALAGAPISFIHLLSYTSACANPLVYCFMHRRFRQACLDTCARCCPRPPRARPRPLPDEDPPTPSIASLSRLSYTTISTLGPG

[1] = biological target: T2, peripheral type CCK receptors in rat pancreas (Rattus norvegicus, UniProt P30551); test: Binding to peripheral type CCK receptors in rat pancreas (3H-L-364,718); details: for inhibition at 10 µM: read-out: Pancreas Percent Inhibition; for IC50: rat pancreas
T2 construct: Pancreas was obtained from male Sprague-Dawley rats; from tissue; host or cells: pancreas membranes of male Sprague-Dawley rats
T2 sequence (P30551 1-444): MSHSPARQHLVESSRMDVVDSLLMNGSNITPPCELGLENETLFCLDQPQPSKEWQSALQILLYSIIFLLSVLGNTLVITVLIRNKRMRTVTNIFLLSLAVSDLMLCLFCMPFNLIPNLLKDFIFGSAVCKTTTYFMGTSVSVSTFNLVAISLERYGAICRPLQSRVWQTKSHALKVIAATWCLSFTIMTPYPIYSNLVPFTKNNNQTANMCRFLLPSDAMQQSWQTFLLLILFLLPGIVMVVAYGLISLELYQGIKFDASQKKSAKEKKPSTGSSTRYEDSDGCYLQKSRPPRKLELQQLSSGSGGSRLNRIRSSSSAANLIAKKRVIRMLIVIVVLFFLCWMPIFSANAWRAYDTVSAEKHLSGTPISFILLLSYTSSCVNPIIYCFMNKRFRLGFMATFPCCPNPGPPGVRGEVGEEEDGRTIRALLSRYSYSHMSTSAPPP
In short: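 Washed pancreatic membranes from male Sprague-Dawley rats (150-200 g) incubated 1 h at room temperature with 0.4-0.6 nM ³H-L-364,718 in 50 mM Tris pH 7.4, 5 mM MgCl2, bacitracin, 5 mM DTT. Bound radioactivity counted after filtration; nonspecific binding defined with 100 nM L-364,718; IC50 determined.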

pKa by titration = details: first or only value; for pKa: 2:1 dmf:h2o, titration pKa
gastrin receptor = biological target: T3, gastrin receptor (Cavia porcellus, UniProt H0VZC5); test: Gastrin binding to guinea pig stomach mucosal membranes (125I-gastrin I)
T3 construct: Guinea pig stomach fundus was obtained from male Hartley guinea pigs; from tissue; host or cells: stomach fundus mucosal membranes of male Hartley guinea pigs
T3 sequence (H0VZC5 1-426): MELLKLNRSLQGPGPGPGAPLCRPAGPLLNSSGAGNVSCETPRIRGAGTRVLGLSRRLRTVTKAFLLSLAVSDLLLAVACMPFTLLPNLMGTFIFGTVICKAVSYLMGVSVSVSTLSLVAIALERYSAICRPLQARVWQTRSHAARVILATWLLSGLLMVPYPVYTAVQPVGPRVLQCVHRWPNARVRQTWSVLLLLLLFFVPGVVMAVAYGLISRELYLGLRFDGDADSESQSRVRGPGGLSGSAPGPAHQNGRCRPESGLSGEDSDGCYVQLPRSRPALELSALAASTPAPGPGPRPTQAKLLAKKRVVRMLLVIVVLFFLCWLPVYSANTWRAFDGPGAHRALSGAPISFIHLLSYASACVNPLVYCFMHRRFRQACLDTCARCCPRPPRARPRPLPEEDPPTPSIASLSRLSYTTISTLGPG
Description: The method used for gastrin binding to guinea pig stomach mucosal membranes was similar to that described by Takeuchi, Speir and Johnson (Am. J. Physiol. 237(3): E284-E294, 1979). Guinea pig stomach fundus was obtained from male Hartley guinea pigs, 300-350 g, and the mucosa was scraped off with a glass slide. The mucosa was homogenized in 50 mM Tris buffer, pH 7.4, containing 1 mM phenylmethanesulfonyl fluoride using a Dounce glass homogenizer, and the suspension was centrifuged at 40,000 g for 10 min. The resulting pellet was resuspended and centrifuged once more, the final pellet was then suspended in 100 ml assay buffer per 1 guinea pig stomach to give a protein concentration of 200-300 μg/200 μl. The assay buffer consisted of 50 mM Tris buffer, pH 7.4, 5 mM MgCl2, 0.14 mg/ml bacitracin, and 1 μg/ml each of leupeptin, chymostatin, aprotinin and pepstatin. Reagent volumes for the assay were the same as those used for CCK binding to brain membranes. The radioactive ligand was 20 pM ^125 I-gastrin I, from DuPont NEN (NEX-176). The samples were incubated 3 hours at room temperature and filtered and counted as described for CCK binding to brain membranes. Compound samples were prepared and IC-50 values were determined as described for the CCK-brain receptor binding. Non-specific binding was determined using 100 nM gastrin I (human synthetic from Sigma Chemical Co.).

[2] = mouse brain membranes, read-out: Brain IC50
[3] = Brain IC50, mouse brain membranes
[4] = guinea pig stomach mucosal membranes, read-out: Gastrin IC50

Row | SMILES | IC50 (brain CCK receptor; [2]) [nM] | inhibition at 10 µM ([1]; at 10 μM) [%] | IC50 (gastrin receptor; [4]) [nM] | also measured
1 | O=C1NN(C(=O)c2cc3ccccc3[nH]2)[C@@H](c2ccccc2)[C@@H]1c1ccccc1 (relative stereo) [Example 14, 1-(Indole-2-carbonyl)-4,5-diphenyl-3-pyrazolidinone] | 2600 | 60 |  | pKa (pKa by titration): 6.75
2 | C[C@@H](OC(=O)N1NC(=O)[C@@H](c2ccccc2)[C@@H]1c1ccccc1)c1ccccc1 (single isomer, unassigned) [Example 139B] |  |  |  | titration pKa (pKa by titration; 2:1 DMF:H2O, listed as Diastereomer B): 8.6
3 | C[C@@H](OC(=O)N1NC(=O)[C@@H](c2ccccc2)[C@@H]1c1ccccc1)c1ccccc1 (single isomer, unassigned) [Example 139A] |  |  |  | pKa (pKa by titration): 8.7
4 | O=C1NN(C(=O)Nc2ccc(C(F)(F)F)cc2)C(c2ccccc2)C1c1ccccc1Cl (stereo not shown) [Example 130] |  | 42 |  | IC50 (brain CCK receptor; [3]): 12 nM; IC50 (gastrin receptor): 100 nM
5 | O=C1NN(C(=O)Nc2ccc(Br)cc2)C(c2cccnc2)C1c1ccccc1 (stereo not shown) [Example 135] | 140 | 18 | 1700 | 
6 | O=C1NN(C(=O)Nc2ccc(Br)cc2)[C@@H](c2cccc(Cl)c2Cl)[C@H]1c1ccccc1 (relative stereo) [Example 117] | 400 | 64 | 1000 | 
7 | O=C1NN(C(=O)Nc2ccc3ncccc3c2)[C@@H](c2ccccc2)[C@@H]1c1ccccc1 (relative stereo) [Example 93] | 290 | 75 | 660 | 
8 | O=C1NN(C(=O)Nc2ccc(Br)cc2)C(c2ccccc2)C1c1ccccc1Cl (stereo not shown) [Example 122] | 15 |  | 220 | IC50 [1]: 8600 nM
9 | O=C1NN(C(=O)Nc2ccc(Cl)c(C(F)(F)F)c2)C(c2ccccc2Cl)C1c1ccccc1 (stereo not shown) [Example 120] | 16 | 87 | 120 | 
10 | O=C1NN(C(=O)Nc2ccc3c(c2)CCCC3)[C@H](c2ccccc2)[C@H]1c1ccccc1 (relative stereo) [Example 50] | 13 | 87 | 81 | 
11 | O=C1NN(C(=O)NCCc2ccccc2Cl)[C@@H](c2ccccc2)[C@@H]1c1ccccc1 (relative stereo) [Example 106] | 190 | 78 | 870 | 
12 | O=C1NN(C(=S)Nc2ccc3ccccc3c2)[C@@H](c2ccccc2)[C@@H]1c1ccccc1 (relative stereo) [Example 136, 1-[(2-Naphthyl)aminothiocarbonyl]-4,5-diphenyl-3-pyrazolidinone] |  |  |  | IC50 [1]: 160 nM; pKa (pKa by titration): 5.8
13 | O=C1NN(C(=O)Nc2ccc(Br)cc2)C(c2ccccc2Cl)C1c1ccccc1 (stereo not shown) [Example 114] | 20 | 38 | 360 | 
14 | O=C1NN(C(=O)Nc2ccc(Br)cc2)C(c2ccccc2)C1c1cccc2ccccc12 (stereo not shown) [Example 134] | 33 | 75 | 93 | 
15 | O=C1NN(C(=O)Nc2cnc3ccccc3c2)[C@@H](c2ccccc2)[C@@H]1c1ccccc1 (relative stereo) [Example 92] | 64 | 88 | 160 | 
16 | O=C1NN(C(=O)Nc2ccc(Cl)c(C(F)(F)F)c2)[C@@H](c2ccccc2)[C@@H]1c1ccccc1 (relative stereo) [Example 1, 1-[(4-Chloro-3-trifluoromethylphenyl)aminocarbonyl]-4,5-diphenyl-3-pyrazolidinone] | 22 |  | 150 | IC50 [1]: 190 nM

Row | SMILES | IC50 (brain CCK receptor; [2]) [nM] | inhibition at 10 µM ([1]; at 10 μM) [%] | IC50 (gastrin receptor; [4]) [nM] | also measured
17 | O=C1NN(C(=O)Nc2ccc(Br)cc2)[C@@H](c2ccccc2Cl)[C@H]1c1ccccc1Cl (relative stereo) [Example 133A] | 360 | 55 | 1500 | 
18 | CC(C)Oc1cccc(C2C(=O)NN(C(=O)Nc3ccc(Br)cc3)C2c2ccccc2)c1 (stereo not shown) [Example 124] | 150 | 36 | 730 | 
19 | CC(C)c1ccc(NC(=O)N2NC(=O)C(c3ccccc3Cl)C2c2ccccc2)cc1 (stereo not shown) [Example 132] | 8 | 48 | 70 | 
20 | O=C1NN(C(=O)Nc2ccc(Br)cc2)C(c2ccccc2)C1c1cccc(Br)c1 (stereo not shown) [Example 127] | 32 | 73 | 210 | 
21 | O=C1NN(C(=O)Nc2ccc(C(F)(F)F)cc2)C(c2ccccc2Cl)C1c1ccccc1 (stereo not shown) [Example 110] | 7 |  | 130 | Pancreas Percent Inhibition ([1]; at 10 μM): 47%
22 | O=C1NN(C(=O)Nc2ccc(Br)cc2)C(c2ccccc2)C1c1cccc(Cl)c1 (stereo not shown) [Example 126] | 11 | 59 | 210 | 
23 | COc1ccccc1C1C(c2ccccc2)C(=O)NN1C(=O)Nc1ccc(Br)cc1 (stereo not shown) [Example 115] | 150 | 53 | 320 | 
24 | CC(C)c1ccc(NC(=O)N2NC(=O)[C@@H](c3ccccc3)[C@@H]2c2ccccc2)cc1 (relative stereo) [Example 29] | 25 | 47 | 260 | 
25 | O=C1NN(C(=O)Nc2ccc(Br)cc2)[C@@H](c2ccccc2Cl)[C@@H]1c1ccccc1Cl (relative stereo) [Example 133] | 6 |  | 25 | IC50 [1]: 7900 nM
26 | CC(C)c1ccc(NC(=O)N2NC(=O)C(c3ccccc3)C2c2ccccc2Cl)cc1 (stereo not shown) [Example 121] | 14 | 26 | 120 | 
27 | N#Cc1cccc(C2C(c3ccccc3)C(=O)NN2C(=O)Nc2ccc(C(F)(F)F)cc2)c1 (stereo not shown) [Example 111] |  | 35 |  | IC50 (brain CCK receptor; [3]): 20 nM; IC50 (gastrin receptor): 610 nM
28 | CC(C)(C)c1ccc(NC(=O)N2NC(=O)[C@@H](c3ccccc3)[C@@H]2c2ccccc2)cc1 (relative stereo) [Example 30] | 31 | 49 | 350 | 
29 | COc1cccc(C2C(c3ccccc3)C(=O)NN2C(=O)Nc2ccc(C(F)(F)F)cc2)c1 (stereo not shown) [Example 112] | 72 | 42 | 1400 | 
30 | O=C1NN(C(=O)Nc2ccc(C(F)(F)F)cc2)[C@@H](c2ccccc2)[C@@H]1c1ccccc1 (relative stereo) [Example 16] | 44 | 62 | 420 | 
31 | O=C1NN(C(=O)Nc2ccc(Br)cc2)C(c2ccccc2)C1c1cccc([N+](=O)[O-])c1 (stereo not shown) [Example 125] | 100 | 42 | 590 | 

— patent US5399565A, “Pyrazolidinone CCK and gastrin antagonists and pharmaceutical formulations therof” (priority 1993, dated 1995)
